O=Cc1ccc2c(c1)OCO2
solubility (mole fraction)
Details | in acetone | in chloroform | in ethanol | in isopropanol | in water
273.15 K | 0.0521 | 0.427 | 0.0056 | 0.0174 | 0.000118
278.15 K | 0.0655 | 0.477 | 0.0143 | 0.0227 | 0.000153
283.15 K | 0.0876 | 0.531 | 0.0396 | 0.0332 | 0.00022
288.15 K | 0.118 | 0.598 | 0.0697 | 0.0461 | 0.000277
293.15 K | 0.155 | 0.693 | 0.123 | 0.0753 | 0.000393

— BigSolDB 2.1
